For orientation: mortality means the percentage killed. As usually defined, the LC50 is the concentration lethal to half of the exposed cells or organisms.

The results in this text go back to US8809319B2, “Substituted 8-oxa-10,11-dihydroimidazo[2,3-a]bicyclo[3.2.1]oct-3-enes and use thereof as an insecticide” (priority 2009, dated 2014).

In brackets after ≈: the same amount, converted by molar mass. Where two headings read alike, the source gives them in different places.

For one series, the system named is Aphis craccivora. Put plainly: Insecticidal activity against aphids, dipping method. The following applies: for mortality at 500 µg/mL / LC50: Aphis craccivora; for mortality at 500 µg/mL: read-out: Aphis craccivora Mortality rate (%, 500 mg L^−1). The class given is in vivo. Here is the method: Aphids, which belong to the Homoptera and have piercing-sucking mouth parts, are a common pest for agricultural crops. Aphis craccivora was used as the subject, and a dipping method was employed for testing.
Testing method: Each sample was precisely weighed, and 2 mL of DMSO and 18 mL of water were added respectively; then, three drops of the emulsion agent 200I were added to form a testing liquid; a blank was also prepared by adding three drops of emulsion agent 220I to 2 mL of DMSO and 18 mL of water. Broad bean leaves adhered by a certain number of insects were immersed in the testing liquid for three to five seconds, then removed and air-dried; the insects were moved into a clean container together with feed, and the container was placed in a dry, thermostatic recovery room. After 24 hours, the number of dead insects was checked.

Series [1] concerns Pseudaletia separata Walker. Put plainly: Insecticidal activity against armyworms, leaf-dipping method. The settings on record: for mortality at 500 µg/mL / LC50: Mythimna separata; for mortality at 500 µg/mL: read-out: Pseudaletia separata Walker Mortality rate (%, 500 mg L^−1). The class given is in vivo. An excerpt:
Second instar Pseudaletia separata Walker larvae were used as the subjects and the dipping method was employed for testing.
Pseudaletia separata Walker, which is a very important lepidopterans pest of various grains, can be suitably used in various of applications, for example, in the study of toxicity, such as the stomach toxicity, contact poisoning, comprehensive and residual effects of insecticides, and other aspects of insect toxicology, as well as the screen test for new compounds. Pseudaletia separata Walker extermination activity was tested in accordance with a method reported in the literature.
Operation procedure of the leaf-dipping method: Each sample was precisely weighed, and 2 mL of DMSO and 18 mL of water were added respectively; and then, three drops of the emulsion agent 2001 (procured from Shanghai Nongyaochang Co., Ltd.) were added to form the test liquid. A blank was also formulated by adding three drops of the 2201 emulsion agent to 2 mL of DMSO and […]. Fresh corn leaves were torn into small pieces and immersed for about five seconds in the liquid, then removed, air-dried, and placed in a 100-mL jar. About 20 2nd instar larvae were introduced into the jar. The jar was closed using white gauze and a rubber band, and the larvae were fed with corn soaked with the liquid continuously. The mortality rate of the larvae was checked after five days. The requisite temperature was 22° C. to 27° C., humidity 70% to 80%. There was no need to correct the mortality rates for each treatment if the blank mortality rate was 5% or less; however, if the control mortality rate was 5% to 20%, Abbott's correction should be used for the mortality rates for each treatment. Abbott's formula: Corrected mortality rate=[(treated mortality rate−control mortality rate)/(100−control mortality rate)×100].

For series [2], the system named is Nilaparvata lugens resistant strain. Description: Insecticidal activity against Nilaparvata lugens, micro-drip method, resistant strain. The class given is in vivo. The settings on record: for Magnitude of resistance: resistant strain versus susceptible strain; for Relative toxicity / LD50 (ng/pest): resistant strain; for Relative toxicity: relative to imidacloprid; for LD50 (ng/pest): topical micro-drip, 48 hours. Here is the method: (§1) Nilaparvata lugens, which belongs to the Homoptera and has piercing-sucking mouth parts, is a common pest for agricultural crops. Nilaparvata lugens was used as the subject, and the micro-drip measurement method reported by Nagata was employed for testing.
(§2) Operation procedure: Unmated winged females two to three days after eclosion were selected as the test subjects; the compounds were diluted in acetone to a series of concentrations. The insects were paralyzed by carbon dioxide, and the liquid (0.08 μL) was dripped onto the pronotum of the insects using a manual micro-dripper (Burkard Manufacturing Co., Ltd., Rickmansworth, UK). Each of the concentrations was used to treat about 30 insects in triplicate. Acetone was used as the control. The treated adult insects were cultured on rice seedlings grown without soil in an incubator (20×20×10 cm), where the temperature was controlled at 25±1° C. with 16/8 hours of light and dark cycle. The results were checked after 48 hours, and the LD50 was calculated using a standard probability analysis method.

The test system of series [3] is Nilaparvata lugens susceptible strain. Description: Insecticidal activity against Nilaparvata lugens, micro-drip method, susceptible strain. Type of series: in vivo. The following applies: for Magnitude of resistance / Relative toxicity / LD50 (ng/pest): susceptible strain; for Relative toxicity: relative to imidacloprid; for LD50 (ng/pest): topical micro-drip, 48 hours. Here is the method: as §1, §2

In series [4] the test system is N1 α 1/β 2 receptors expressed by the oocytes. Description: Mechanism of action, electrophysiological testing on receptors expressed by oocytes. Type of series: cell-based. From the text:
(§3) The compound (1a) was separately subjected to electrophysiological testing and isotope marker substitution testing.

Series [5] concerns nicotinic acetylcholine receptors of Periplaneta americana. Put plainly: Mechanism of action, electrophysiological testing on cockroach nAChRs. The class given is cell-based.
Text: as §3

[6] abbreviates: 24 h, read-out: Aphis craccivora LC50 (mmol L^−1).
Setting [7] is: foliar, 120 h, read-out: Pseudaletia separata Walker LC50 (mmol L^−1).

Consider `O=[N+]([O-])C1=C2N(Cc3ccccc3)CCN2[C@H]2CCC[C@@H]1O2` [Compound 2c, 10-benzyl-4-nitro-9-oxa-11,12-dihydroimidazo-[2,3-a]-bicyclo-[3,3,1]-non-3-ene], for which the mortality at 500 µg/mL with Aphis craccivora (500 mg L^−1, dipping, after 24 hours) was determined as 55.6%; in series [1] (foliar, 120 h), 0%.
`O=[N+]([O-])C1=C2N(Cc3cnc(Cl)s3)CCN2[C@H]2CCC[C@@H]1O2` [Compound 2b, 10-((2-chlorothiazol-5-yl)methyl)-4-nitro-9-oxa-11,12-dihydroimidazo-[2,3-a]-bicyclo-[3,3,1]-non-3-ene]: the mortality at 500 µg/mL worked out at 98.2% in the series with Aphis craccivora (24 h) and 0% in series [1] (foliar, 120 h).
For `O=[N+]([O-])C1=C2N(Cc3cnc(Cl)s3)CCN2[C@@H]2CC[C@H]1O2` [Compound 1b, 9-((2-chlorothiazol-5-yl)methyl)-4-nitro-8-oxa-10,11-dihydroimidazo-[2,3-a]-bicyclo-[3,2,1]-oct-3-ene], the mortality at 500 µg/mL with Aphis craccivora (24 h) was found to be 100%; in series [1] (foliar, 120 h) it was 100%.
For `O=[N+]([O-])C1=C2N(Cc3ccc(Cl)nc3)CCN2[C@H]2CCC[C@@H]1O2` [Compound 2a, 10-((6-chloropyrid-3-yl)methyl)-4-nitro-9-oxa-11,12-dihydroimidazo-[2,3-a]-bicyclo-[3,3,1]-non-3-ene], the mortality at 500 µg/mL worked out at 87.3% with Aphis craccivora (24 h) and 0% in series [1] (foliar, 120 h). The values for the Magnitude of resistance in series [2] and in series [3] were 4.58 and 1.00, respectively. Besides, the Relative toxicity turned out to be 1.17 in series [2] and 0.32 in series [3]. Besides, the “LD50 (ng/pest)” value in series [2] is reported as 18.9795 ± 2.3501 ng/pest; in series [3] it was 4.1440 ± 0.6136 ng/pest.
For `O=[N+]([O-])C1=C2N(Cc3ccc(Cl)cc3)CCN2C2CCCC1O2` (stereo not drawn) [Compound 2d, 10-(4-chlorobenzyl)-4-nitro-9-oxa-11,12-dihydroimidazo-[2,3-a]-bicyclo-[3,3,1]-non-3-ene], the “Aphis craccivora Mortality rate (%, 500 mg L^−1)” value in the series on Aphis craccivora (in vivo) is 38.9%. Besides, the “Pseudaletia separata Walker Mortality rate (%, 500 mg L^−1)” value in series [1] (in vivo) is recorded as 0%.
`O=[N+]([O-])C1=C2N(Cc3ccc(Cl)nc3)CCN2[C@@H]2CC[C@H]1O2` [Compound 1a, 9-((6-chloropyrid-3-yl)methyl)-4-nitro-8-oxa-10,11-dihydroimidazo-[2,3-a]-bicyclo-[3,2,1]-oct-3-ene]: in series [4], the “agonistic action on N1 α 1/β 2 receptors expressed by the oocytes” value is given as “no agonistic action”. Besides, the 50% lethal concentration (LC50) in the series on Aphis craccivora (setting [6]) is 1.52 µg/mL (≈ 4.71 µM); in the series on Aphis craccivora (read-out: LC50 against aphids) it was 1.52 µg/mL (≈ 4.71 µM); in series [1] (setting [7]), 12.5 µg/mL (≈ 38.7 µM); in series [1] (read-out: LC50 against Pseudaletia separata Walker) it was 12.5 µg/mL (≈ 38.7 µM). In addition, the mortality at 500 µg/mL amounted to 100% with Aphis craccivora (24 h) and 100% in series [1] (foliar, 120 h). Also, the “activity against imidacloprid-resistant Niloparvata lugens versus imidacloprid” value in series [2] came to 50 times. Besides, the Magnitude of resistance in series [2] worked out at 6.64; in series [3] it was 1.00. Besides, the Relative toxicity was 50.00 in series [2] and 1.77 in series [3]. For the same compound, the “LD50 (ng/pest)” value in series [2] stood at 0.4925 ± 0.0811 ng/pest; in series [3] it was 0.0742 ± 0.0106 ng/pest. Also, in series [3], the “activity against susceptible Niloparvata lugens versus imidacloprid” value is “generally the same as that of imidacloprid”. For the same compound, the “mode of action on nicotinic acetylcholine receptor (nAChRs)” value in series [5] (conclusion from electrophysiological and isotope marker substitution testing) was “antagonist”. Moreover, the “agonistic action on nicotinic acetylcholine receptors of Periplaneta americana” value in series [5] (electrophysiological testing) is “no agonistic action”. Also, in series [5] (receptor preparation not given), the “inhibition of the agonist response to acetylcholine” value is recorded as “can inhibit the agonist response to acetylcholine”.
For `O=[N+]([O-])C1=C2N(Cc3ccc(Cl)cc3)CCN2[C@@H]2CC[C@H]1O2` [Compound 1d, 9-(4-chloro-benzyl)-4-nitro-8-oxa-10,11-dihydroimidazo-[2,3-a]-bicyclo-[3,2,1]-oct-3-ene], the mortality at 500 µg/mL in the series with Aphis craccivora (24 h) was 95.7%; in series [1] (foliar, 120 h), 0%.
Take `O=[N+]([O-])C1=C2N(Cc3ccccc3)CCN2[C@@H]2CC[C@H]1O2` [Compound 1c, 9-benzyl-4-nitro-8-oxa-10,11-dihydroimidazo-[2,3-a]-bicyclo-[3,2,1]-oct-3-ene]: the mortality at 500 µg/mL was 13.6% with Aphis craccivora (24 h) and 0% in series [1] (foliar, 120 h).
With `O=[N+]([O-])NC1=NCCN1Cc1ccc(Cl)nc1` [Imidacloprid, reference compound], the LC50 in the series with Aphis craccivora (setting [6]) was 8.93 µg/mL (≈ 34.9 µM); in series [1] (setting [7]), 38.7 µg/mL (≈ 151 µM). The mortality at 500 µg/mL came out at 100% in the series on Aphis craccivora (24 h) and 100% in series [1] (foliar, 120 h). For the same compound, the Magnitude of resistance in series [2] stood at 168.40; in series [3], 1.00. The Relative toxicity in series [2] and in series [3] was 1.00 in each case. For the same compound, the “LD50 (ng/pest)” value in series [2] was 22.1614 ± 3.7522 ng/pest; in series [3], 0.1316 ± 0.0154 ng/pest.
